Assay results reported in patent US7778782B1, “Peroxisome proliferation activated receptor alpha (PPARα) signatures” (priority 2002, dated 2010).
Marks after values point to notes of the source that are not given here.

Test system: PPARα response signature
Assay: Signature Projection Score (SPS) of liver gene expression against the PPARα response signature
Assay type: in vivo, male Sprague-Dawley rats
Method: Compound dosing was based on the acute dose LD50s recorded in published reference or literature sources. Duplicate rats were dosed at each of 3 doses: at LD50, one-half and one-fourth of LD50. The MTD (maximum tolerated dose) was then selected as the dose at which the animals […] 5-10% body weight during the 5-day range finding study. […] In addition, the clinical observations must show no or mild clinical signs during the whole of the range-finding study. At the next highest dose, signs and symptoms of adverse effects and exceeding those of the MTD should be seen to occur. Should these criteria not be met, the range-finding study is repeated using a modified dose range.
After determination of the MTD and FED for a compound, each compound was dissolved in a vehicle for administration on day 1 of the study (additional daily doses were stored as frozen aliquots from this initial formulation). Each compound was administered to three individual male Sprague-Dawley rats for each of the two doses (MTD and FED) for one of four different times (0.25 day, 1 day, 3 days, and 5 or 7 days), yielding a total of up to 24 animals per compound study. Vehicle choice was based on solubility of the compound, effect of food on adsorption, and the vehicles used in the literature reports examined during the FED selection investigations, described above. Generally, the route and vehicle in which the FED was defined are used. When there was a choice of routes and vehicles, oral routes were chosen over injection routes. Many compounds, especially oncolytics, are only administerable intravenously. In such cases, the compound was administered as an intravenous formulation into the tail vein. Orally administered compounds were given dissolved in either water, 1% carboxymethycellulose (CMC) or corn oil. Intravenously and intraperitoneally administered compounds were given in 0.9% saline. Subcutaneously administered compounds were given in corn oil. Animal body weights were determined at 1 day and, where appropriate, at 4 days, before necropsy, and clinical observations were made on a daily basis. Control animals were dosed with vehicle only. Three male animals were used for each dose and time combination used for the compound treatment.
Tissue harvest and handling: After the allocated treatment time, the tissues from the animals were harvested. […] All the tissues collected were divided to provide samples for histopathological analyses, and the remainder of each tissue was then snap-frozen. […] The parameters were measured using a Hitachi-911 clinical chemistry analysis instrument according to the manufacturer's instructions. The following blood constituents were measured: Blood Urea Nitrogen (BUN), Creatinine (CRE), Glucose (GLU), Alanine Transaminase (ALT), Aspartate Aminotransferase (AST), Alkaline Phosphatase (ALP), Total Bilirubin (TBI), Sodium (SOD), Potassium (POT), Chloride (CHL), Phosphorus (PHO), Total Protein (TPR), Albumin (ALB), Cholesterol (CHO), Creatine Phosphokinase (CPK), Lactate Dehydrogenase (LDH), Carbon Dioxide (CO2), Uric Acid (UA), and Lipase. […] The parameters were measured using a Baker 9000 blood cell analysis instrument according to the manufactures instructions. The following blood constituents were measured: Leukocyte count (WBC), Differential Leukocyte counts, Erythrocyte count (RBC), Hemoglobin concentration (HGB), Hematocrit (HCT), Mean Corpuscular Volume (MCV), Mean Corpuscular Hemoglobin (MCH), Mean Corpuscular Hemoglobin Concentration (MCC), Thrombocyte Count (PLC). Histopathology: Histopathological analyses of hematoxylin and eosin-stained tissue sections were performed and peer-reviewed by board-certified (Diplomate, American College of Veterinary Pathologists) veterinary pathologists.

[1] = rat liver expression data in DrugMatrix database compared with PPARα response signature, normalised so highest training treatment = 100, *= p < 0.01, **= p < 0.001
[2] = rat liver gene expression, in words

Compound | SPS (Sequence Projection Score) [1] | other results
CC1=C(CC(=O)O)c2cc(F)ccc2/C1=C\c1ccc([S+](C)[O-])cc1 (centres unmarked) | 4 | –
C[C@]12CCC(=O)C=C1CC[C@@H]1[C@@H]2CC[C@@]2(C)[C@H]1CC[C@]2(C)O [17-METHYLTESTOSTERONE] | 5 | –
CC(C)c1c(C(=O)Nc2ccccc2)c(-c2ccccc2)c(-c2ccc(F)cc2)n1CC[C@@H](O)C[C@@H](O)CC(=O)O [ATORVASTATIN] | 22* | similarity to the PPARα response signature [2]: significantly similar to the signature
Cn1cnc([N+](=O)[O-])c1Sc1ncnc2nc[nH]c12 [AZATHIOPRINE] | 7 | –
C[C@]12CC[C@@H]3c4ccc(O)cc4CC[C@H]3[C@@H]1CC[C@@H]2O [BETA-ESTRADIOL] | 11 | –
CC(C)(Oc1ccc(CCNC(=O)c2ccc(Cl)cc2)cc1)C(=O)O [BEZAFIBRATE, 2-(4-(2-((4-chlorobenzoyl)amino)ethyl)phenoxy)-2-methylpropanoic acid] | – | SPS (Signature Projection Score) [1]: 102**
CCCCC(CC)COC(=O)c1ccccc1C(=O)OCC(CC)CCCC (centres unmarked) [BIS-2-ETHYLHEXYL PHTHALATE] | 68** | similarity to the PPARα response signature [2]: significantly similar to the signature
Oc1c(Cl)cc(Cl)cc1Sc1cc(Cl)cc(Cl)c1O [BITHIONOL] | 20 | –
COCc1c(C(C)C)nc(C(C)C)c(/C=C/[C@@H](O)C[C@@H](O)CC(=O)O)c1-c1ccc(F)cc1 [CERIVASTATIN] | 15 | –
O=C(O)CCCc1ccc(N(CCCl)CCCl)cc1 [CHLORAMBUCIL] | – | SPS (Signature Projection Score) [1]: 8
N.N.[Cl][Pt][Cl] [CISPLATIN] | 9 | –
CCOC(=O)C(C)(C)Oc1ccc(Cl)cc1 [CLOFIBRATE, 2-(p-chlorophenoxy)-2-methylpropionic acid ethyl ester] | 99** | –
Clc1ccccc1C(c1ccccc1)(c1ccccc1)n1ccnc1 [CLOTRIMAZOLE] | 4 | –
CC(=O)O[C@]1(C(C)=O)CC[C@H]2[C@@H]3C=C(Cl)C4=CC(=O)[C@@H]5C[C@@H]5[C@]4(C)[C@H]3CC[C@@]21C [CYPROTERONE ACETATE] | 5 | –
C[C@@H]1C[C@H]2[C@@H]3CCC4=CC(=O)C=C[C@]4(C)[C@@]3(F)[C@@H](O)C[C@]2(C)[C@@]1(O)C(=O)CO [DEXAMETHASONE] | 9 | –
C#C[C@]1(O)CC[C@H]2[C@@H]3CCc4cc(O)ccc4[C@H]3CC[C@@]21C [ETHINYLESTRADIOL] | 19 | –
OC(Cn1cncn1)(Cn1cncn1)c1ccc(F)cc1F [FLUCONAZOLE] | 4 | –
CC(C)n1c(/C=C/C(O)CC(O)CC(=O)O)c(-c2ccc(F)cc2)c2ccccc21 (centres unmarked) [FLUVASTATIN] | – | SPS (Signature Projection Score) (rat, in vivo): 35*
Cc1ccc(C)c(OCCCC(C)(C)C(=O)O)c1 [GEMFIBROZIL, 5-(2,5-dimethylphenoxy)-2,2-dimethylpentanoic acid] | 65* | –
O=P1(NCCCl)OCCCN1CCCl (centres unmarked) [IFOSFAMIDE] | 9 | –
CC(=O)N1CCN(c2ccc(OCC3COC(Cn4ccnc4)(c4ccc(Cl)cc4Cl)O3)cc2)CC1 (centres unmarked) [KETOCONAZOLE] | 6 | –
Cc1oncc1C(=O)Nc1ccc(C(F)(F)F)cc1 [LEFLUNOMIDE] | 5 | –
CC[C@H](C)C(=O)O[C@H]1C[C@@H](C)C=C2C=C[C@H](C)[C@H](CC[C@@H]3C[C@@H](O)CC(=O)O3)[C@H]21 [LOVASTATIN] | – | SPS (Signature Projection Score) (rat, in vivo): 45*; similarity to the PPARα response signature (rat, in vivo): significantly similar to the signature
CC#C[C@]1(O)CC[C@H]2[C@@H]3CCC4=CC(=O)CCC4=C3[C@@H](c3ccc(N(C)C)cc3)C[C@@]21C [MIFEPRISTONE] | 7 | –
CN(C)C=O [N,N-DIMETHYLFORMAMIDE] | 5 | –
C#C[C@]1(OC(C)=O)CC[C@H]2[C@@H]3CCC4=CC(=O)CC[C@@H]4[C@H]3CC[C@@]21C [NORETHINDRONE ACETATE] | 5 | –
c1ccc2c(c1)Nc1ccccc1S2 [PHENOTHIAZINE] | 23* | –
CC(=O)[C@H]1CC[C@H]2[C@@H]3CCC4=CC(=O)CC[C@]4(C)[C@H]3CC[C@]12C [PROGESTERONE] | 5 | –
O=C(c1ccc(OCCN2CCCCC2)cc1)c1c(-c2ccc(O)cc2)sc2cc(O)ccc12 [RALOXIFENE] | 44* | –
